Assay results taken from ChEMBL document CHEMBL1201862, “PubChem BioAssay data set” (2004).
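Dose response: 5 concentrations. Exposure: 48 h. Format: 96-well plates. Endpoint: linear interpolation; highest concentration if not reached. GI50 marks 50% less growth.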 Calls of active or inactive are those of the source. Cut-off read from the data, not from the text of the source: active = GI50 up to about 1.1 µM and inactive = higher.

Experiments:
Experiment in all cases: NCI tumour cell line growth inhibition, 48 h
786-0 = test system: 786-0
A549 = test system: A549
ACHN = test system: ACHN
CAKI-1 = test system: CAKI-1
CCRF-CEM = test system: CCRF-CEM
COLO 205 = test system: COLO 205
DU-145 = test system: DU-145
EKVX = test system: EKVX
HCC 2998 = test system: HCC 2998
HCT-116 = test system: HCT-116
HCT-15 = test system: HCT-15
HOP-92 = test system: HOP-92
Hs-578T = test system: Hs-578T
IGROV-1 = test system: IGROV-1
K562 = test system: K562
KM12 = test system: KM12
LOX IMVI = test system: LOX IMVI
M14 = test system: M14
MCF7 = test system: MCF7
MDA-MB-435 = test system: MDA-MB-435
MDA-N = test system: MDA-N
MOLT-4 = test system: MOLT-4
NCI-H23 = test system: NCI-H23
NCI-H460 = test system: NCI-H460
NCI-H522 = test system: NCI-H522
NCI/ADR-RES = test system: NCI/ADR-RES
OVCAR-3 = test system: OVCAR-3
OVCAR-5 = test system: OVCAR-5
OVCAR-8 = test system: OVCAR-8
PC-3 = test system: PC-3
RPMI-8226 = test system: RPMI-8226
SF-268 = test system: SF-268
SF-295 = test system: SF-295
SF-539 = test system: SF-539
SK-MEL-28 = test system: SK-MEL-28
SK-MEL-2 = test system: SK-MEL-2
SK-MEL-5 = test system: SK-MEL-5
SN12C = test system: SN12C
SNB-19 = test system: SNB-19
SNB-75 = test system: SNB-75
SR = test system: SR
SW-620 = test system: SW-620
T47D = test system: T47D
TK-10 = test system: TK-10
UACC-257 = test system: UACC-257
UACC-62 = test system: UACC-62
UO-31 = test system: UO-31
A498 = test system: A498
HL-60 = test system: HL-60
HOP-62 = test system: HOP-62
HT-29 = test system: HT-29
MDA-MB-231 = test system: MDA-MB-231
Malme-3M = test system: Malme-3M
NCI-H226 = test system: NCI-H226
OVCAR-4 = test system: OVCAR-4
SK-OV-3 = test system: SK-OV-3
U-251 = test system: U-251

COC(=O)c1c[nH]c(=O)[nH]c1=O [ISOOROTIC ACID METHYL ESTER]
GI50 (786-0): > 100 µM (inactive) | GI50 (A549): > 100 µM (inactive) | GI50 (ACHN): > 100 µM (inactive) | GI50 (CAKI-1): > 100 µM (inactive) | GI50 (CCRF-CEM): > 100 µM (inactive) | GI50 (COLO 205): > 100 µM (inactive) | GI50 (DU-145): > 100 µM (inactive) | GI50 (EKVX): > 100 µM (inactive) | GI50 (HCC 2998): > 100 µM (inactive) | GI50 (HCT-116): > 100 µM (inactive) | GI50 (HCT-15): > 100 µM | GI50 (HOP-92): 30.5 µM (inactive) | GI50 (Hs-578T): > 100 µM (inactive) | GI50 (IGROV-1): > 100 µM (inactive) | GI50 (K562): > 100 µM (inactive) | GI50 (KM12): > 100 µM (inactive) | GI50 (LOX IMVI): > 100 µM (inactive) | GI50 (M14): > 100 µM (inactive) | GI50 (MCF7): > 100 µM (inactive) | GI50 (MDA-MB-435): > 100 µM (inactive) | GI50 (MDA-N): > 100 µM (inactive) | GI50 (MOLT-4): > 100 µM (inactive) | GI50 (NCI-H23): > 100 µM (inactive) | GI50 (NCI-H460): > 100 µM (inactive) | GI50 (NCI-H522): > 100 µM (inactive) | GI50 (NCI/ADR-RES): > 100 µM (inactive) | GI50 (OVCAR-3): > 100 µM (inactive) | GI50 (OVCAR-5): > 100 µM (inactive) | GI50 (OVCAR-8): > 100 µM (inactive) | GI50 (PC-3): > 100 µM (inactive) | GI50 (RPMI-8226): > 100 µM (inactive) | GI50 (SF-268): > 100 µM (inactive) | GI50 (SF-295): > 100 µM (inactive) | GI50 (SF-539): > 100 µM (inactive) | GI50 (SK-MEL-28): > 100 µM (inactive) | GI50 (SK-MEL-2): > 100 µM (inactive) | GI50 (SK-MEL-5): > 100 µM (inactive) | GI50 (SN12C): > 100 µM (inactive) | GI50 (SNB-19): > 100 µM (inactive) | GI50 (SNB-75): > 100 µM (inactive) | GI50 (SR): > 100 µM (inactive) | GI50 (SW-620): > 100 µM (inactive) | GI50 (T47D): > 100 µM (inactive) | GI50 (TK-10): > 100 µM (inactive) | GI50 (UACC-257): > 100 µM (inactive) | GI50 (UACC-62): > 100 µM (inactive) | GI50 (UO-31): > 100 µM (inactive)

O=C(/C=C/c1cccs1)c1ccsc1
GI50 (786-0): 28.8 µM (inactive) | GI50 (A498): 38.7 µM (inactive) | GI50 (A549): 38 µM (inactive) | GI50 (ACHN): 20.2 µM (inactive) | GI50 (CAKI-1): 56.5 µM (inactive) | GI50 (CCRF-CEM): 16.5 µM (inactive) | GI50 (COLO 205): 18.1 µM (inactive) | GI50 (DU-145): 50.2 µM (inactive) | GI50 (EKVX): 31.1 µM (inactive) | GI50 (HCC 2998): 17.4 µM (inactive) | GI50 (HCT-15): 16.8 µM | GI50 (HL-60): 15.5 µM (inactive) | GI50 (HOP-62): 73.5 µM (inactive) | GI50 (HT-29): 19.3 µM (inactive) | GI50 (IGROV-1): 25.1 µM (inactive) | GI50 (K562): 17.5 µM (inactive) | GI50 (KM12): > 10 µM (inactive) | GI50 (LOX IMVI): 17.2 µM (inactive) | GI50 (M14): 39.2 µM (inactive) | GI50 (MCF7): 10.4 µM (inactive) | GI50 (MDA-MB-231): > 10 µM (inactive) | GI50 (MDA-MB-435): 21.8 µM (inactive) | GI50 (MDA-N): 18.9 µM (inactive) | GI50 (MOLT-4): 16.9 µM (inactive) | GI50 (Malme-3M): 22.2 µM (inactive) | GI50 (NCI-H226): 21.1 µM (inactive) | GI50 (NCI-H23): 18.1 µM (inactive) | GI50 (NCI-H460): 24.5 µM (inactive) | GI50 (NCI/ADR-RES): 35.2 µM (inactive) | GI50 (OVCAR-4): 51.1 µM (inactive) | GI50 (OVCAR-5): 26.9 µM (inactive) | GI50 (OVCAR-8): 27.6 µM (inactive) | GI50 (PC-3): 22.4 µM (inactive) | GI50 (RPMI-8226): 15.9 µM (inactive) | GI50 (SF-268): 45.1 µM (inactive) | GI50 (SF-295): 32.4 µM (inactive) | GI50 (SK-MEL-28): 32.7 µM (inactive) | GI50 (SK-MEL-2): 36.2 µM (inactive) | GI50 (SK-MEL-5): 18.9 µM (inactive) | GI50 (SK-OV-3): 33.4 µM (inactive) | GI50 (SN12C): 19.8 µM (inactive) | GI50 (SNB-19): 18.9 µM (inactive) | GI50 (SNB-75): 27.8 µM (inactive) | GI50 (SR): 16.6 µM (inactive) | GI50 (SW-620): 29 µM (inactive) | GI50 (T47D): 26.3 µM (inactive) | GI50 (TK-10): 22.7 µM (inactive) | GI50 (U-251): > 10 µM (inactive) | GI50 (UACC-257): 23 µM (inactive) | GI50 (UACC-62): 16.5 µM (inactive) | GI50 (UO-31): 17.6 µM (inactive)

CN(C)c1ccc(C=C2C(=O)N(c3ccccc3)N(c3ccccc3)C2=O)cc1
GI50 (786-0): 71.1 µM (inactive) | GI50 (A498): > 100 µM (inactive) | GI50 (A549): 78.9 µM (inactive) | GI50 (ACHN): 81.8 µM (inactive) | GI50 (COLO 205): > 100 µM (inactive) | GI50 (DU-145): > 100 µM (inactive) | GI50 (EKVX): > 100 µM (inactive) | GI50 (HCT-116): > 100 µM (inactive) | GI50 (HCT-15): > 100 µM | GI50 (HOP-62): > 100 µM (inactive) | GI50 (HOP-92): 15.6 µM (inactive) | GI50 (HT-29): 72.8 µM (inactive) | GI50 (Hs-578T): 60.8 µM (inactive) | GI50 (IGROV-1): > 100 µM (inactive) | GI50 (K562): 61.4 µM (inactive) | GI50 (KM12): 74.8 µM (inactive) | GI50 (LOX IMVI): 76.6 µM (inactive) | GI50 (M14): > 100 µM (inactive) | GI50 (MCF7): > 100 µM (inactive) | GI50 (MDA-MB-231): > 100 µM (inactive) | GI50 (MDA-MB-435): 81.1 µM (inactive) | GI50 (MDA-N): > 100 µM (inactive) | GI50 (MOLT-4): 65.6 µM (inactive) | GI50 (Malme-3M): > 100 µM (inactive) | GI50 (NCI-H226): > 100 µM (inactive) | GI50 (NCI-H23): > 100 µM (inactive) | GI50 (NCI-H522): > 100 µM (inactive) | GI50 (OVCAR-3): > 100 µM (inactive) | GI50 (OVCAR-5): > 100 µM (inactive) | GI50 (OVCAR-8): 56.5 µM (inactive) | GI50 (PC-3): 78 µM (inactive) | GI50 (RPMI-8226): 69 µM (inactive) | GI50 (SF-268): > 100 µM (inactive) | GI50 (SF-295): 63.4 µM (inactive) | GI50 (SK-MEL-28): > 100 µM (inactive) | GI50 (SK-MEL-2): > 100 µM (inactive) | GI50 (SK-MEL-5): > 100 µM (inactive) | GI50 (SK-OV-3): > 100 µM (inactive) | GI50 (SN12C): > 100 µM (inactive) | GI50 (SNB-19): 74.3 µM (inactive) | GI50 (SNB-75): 53.7 µM (inactive) | GI50 (SR): > 100 µM (inactive) | GI50 (SW-620): > 100 µM (inactive) | GI50 (TK-10): > 100 µM (inactive) | GI50 (U-251): 37 µM (inactive) | GI50 (UACC-62): > 100 µM (inactive) | GI50 (UO-31): > 100 µM (inactive)
